Measured values: US10392391B2 (Vertex Pharmaceuticals Incorporated, priority 2012, dated 2019)

What follows are compounds tested against ATR kinase (full-length ATR) (Homo sapiens (Human), UniProt Q13535) (assay: ATR inhibition assay (radioactive-phosphate incorporation)). Settings: not given.
Type: biochemical
How it was run: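 Ki(app) was fitted by non-linear regression to background-corrected initial rates. Full-length ATR (5 nM) phosphorylated 800 μM peptide using 10 μM [γ-33P]ATP at 25° C in Tris/HCl pH 7.5 buffer with MgCl2, DTT and 7% DMSO. After 10-minute compound pre-incubation and 24-hour reaction, phosphocellulose filters were scintillation counted.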

Sequence of ATR kinase (full-length ATR) (Q13535 whole entry): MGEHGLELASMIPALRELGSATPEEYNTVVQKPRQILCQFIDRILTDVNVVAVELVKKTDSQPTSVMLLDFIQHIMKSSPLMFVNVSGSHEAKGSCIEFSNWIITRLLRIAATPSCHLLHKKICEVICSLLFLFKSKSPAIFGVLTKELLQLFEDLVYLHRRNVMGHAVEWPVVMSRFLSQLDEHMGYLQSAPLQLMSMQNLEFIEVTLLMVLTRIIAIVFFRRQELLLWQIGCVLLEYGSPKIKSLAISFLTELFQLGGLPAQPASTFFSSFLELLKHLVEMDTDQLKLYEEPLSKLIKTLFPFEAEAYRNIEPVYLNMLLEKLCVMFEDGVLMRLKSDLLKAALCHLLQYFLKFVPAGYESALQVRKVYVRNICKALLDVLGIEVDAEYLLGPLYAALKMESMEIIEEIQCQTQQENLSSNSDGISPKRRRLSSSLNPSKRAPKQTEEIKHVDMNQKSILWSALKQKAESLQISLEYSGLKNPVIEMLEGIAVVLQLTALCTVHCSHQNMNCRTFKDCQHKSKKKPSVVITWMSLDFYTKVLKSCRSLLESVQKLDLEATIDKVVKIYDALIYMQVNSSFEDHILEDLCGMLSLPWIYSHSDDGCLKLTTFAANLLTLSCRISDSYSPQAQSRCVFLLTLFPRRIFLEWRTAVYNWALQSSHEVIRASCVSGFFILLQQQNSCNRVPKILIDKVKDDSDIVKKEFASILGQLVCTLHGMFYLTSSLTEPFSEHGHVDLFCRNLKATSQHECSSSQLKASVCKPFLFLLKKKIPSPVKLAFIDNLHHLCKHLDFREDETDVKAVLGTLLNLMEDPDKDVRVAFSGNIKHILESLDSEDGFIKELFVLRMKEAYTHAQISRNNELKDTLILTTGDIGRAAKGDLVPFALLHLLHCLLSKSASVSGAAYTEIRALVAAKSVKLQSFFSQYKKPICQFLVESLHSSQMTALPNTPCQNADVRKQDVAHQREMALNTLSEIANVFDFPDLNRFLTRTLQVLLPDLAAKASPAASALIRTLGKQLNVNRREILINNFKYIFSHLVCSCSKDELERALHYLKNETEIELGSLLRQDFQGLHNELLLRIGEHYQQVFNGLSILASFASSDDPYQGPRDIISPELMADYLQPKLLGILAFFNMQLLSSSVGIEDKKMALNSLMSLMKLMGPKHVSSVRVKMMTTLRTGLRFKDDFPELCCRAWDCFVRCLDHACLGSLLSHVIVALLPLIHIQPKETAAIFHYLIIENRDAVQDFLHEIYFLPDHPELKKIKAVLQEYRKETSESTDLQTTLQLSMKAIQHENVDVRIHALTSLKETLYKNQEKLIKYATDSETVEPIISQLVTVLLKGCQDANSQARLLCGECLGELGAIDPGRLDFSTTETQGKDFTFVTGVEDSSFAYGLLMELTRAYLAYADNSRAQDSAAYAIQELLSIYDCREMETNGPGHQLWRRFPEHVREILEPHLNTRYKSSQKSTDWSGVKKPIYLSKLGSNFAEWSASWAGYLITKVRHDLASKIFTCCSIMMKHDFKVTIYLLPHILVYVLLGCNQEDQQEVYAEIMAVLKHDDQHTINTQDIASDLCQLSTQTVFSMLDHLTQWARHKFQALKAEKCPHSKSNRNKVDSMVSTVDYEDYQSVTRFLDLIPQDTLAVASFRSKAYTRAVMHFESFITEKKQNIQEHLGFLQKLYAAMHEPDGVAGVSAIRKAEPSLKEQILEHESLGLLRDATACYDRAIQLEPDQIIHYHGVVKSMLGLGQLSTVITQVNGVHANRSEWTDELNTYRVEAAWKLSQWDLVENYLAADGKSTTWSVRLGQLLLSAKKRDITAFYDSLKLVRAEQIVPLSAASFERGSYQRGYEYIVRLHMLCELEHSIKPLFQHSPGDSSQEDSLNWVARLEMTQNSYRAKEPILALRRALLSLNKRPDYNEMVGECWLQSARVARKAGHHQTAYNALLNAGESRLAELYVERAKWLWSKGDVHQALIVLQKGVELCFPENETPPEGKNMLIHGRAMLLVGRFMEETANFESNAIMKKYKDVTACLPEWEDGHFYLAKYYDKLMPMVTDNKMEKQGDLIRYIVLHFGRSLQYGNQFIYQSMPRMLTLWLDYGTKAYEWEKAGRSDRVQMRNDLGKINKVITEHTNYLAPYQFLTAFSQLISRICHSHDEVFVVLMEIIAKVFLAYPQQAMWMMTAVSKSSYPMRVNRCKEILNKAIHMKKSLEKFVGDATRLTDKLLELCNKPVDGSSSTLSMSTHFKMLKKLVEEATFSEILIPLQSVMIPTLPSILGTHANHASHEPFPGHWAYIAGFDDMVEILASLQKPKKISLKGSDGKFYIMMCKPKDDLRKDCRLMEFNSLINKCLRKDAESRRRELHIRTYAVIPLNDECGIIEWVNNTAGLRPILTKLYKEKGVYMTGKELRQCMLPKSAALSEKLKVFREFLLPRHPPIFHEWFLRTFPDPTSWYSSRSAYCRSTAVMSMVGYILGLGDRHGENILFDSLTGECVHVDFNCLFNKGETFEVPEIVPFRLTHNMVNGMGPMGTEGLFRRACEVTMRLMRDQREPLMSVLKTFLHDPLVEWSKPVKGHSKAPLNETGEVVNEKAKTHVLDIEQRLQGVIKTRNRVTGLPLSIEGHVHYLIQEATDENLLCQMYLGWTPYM

Row | SMILES | Ki
1 | Nc1nn2cc(F)cnc2c1C(=O)Nc1cnccc1-c1cccnc1Cl [I-C-37, 2-amino-N-(2-chloro-[3,4′-bipyridin]-3′-yl)-6-fluoropyrazolo[1,5-a]pyrimidine-3-carboxamide] | 1000 to 5000 nM
2 | C[N+]1([O-])CCN(C(=O)C2CCN(c3c(F)cncc3NC(=O)c3c(N)nn4cc(F)cnc34)CC2)CC1 [I-G-95, 4-(1-(3-(2-amino-6-fluoropyrazolo[1,5-a]pyrimidine-3-carboxamido)-5-fluoropyridin-4-yl)piperidine-4-carbonyl)-1-methylpiperazine 1-oxide] | 10 to 1000 nM
3 | Nc1nn2cc(F)cnc2c1C(=O)Nc1cnccc1N1CCCCCC1 [I-N-264, 2-amino-N-(4-(azepan-1-yl)pyridin-3-yl)-6-fluoropyrazolo[1,5-a]pyrimidine-3-carboxamide] | 1000 to 5000 nM
4 | CN(C)CCCOc1ccncc1NC(=O)c1c(N)nn2cc(Cl)cnc12 [I-O-52, 2-amino-6-chloro-N-(4-(3-(dimethylamino)propoxy)pyridin-3-yl)pyrazolo[1,5-a]pyrimidine-3-carboxamide] | 1000 to 5000 nM

Same assay, conditions: Ki(app), 5 nM full-length ATR, 10 μM ATP, 25° C.

Row | SMILES | Ki
5 | Nc1nn2cc(Cl)cnc2c1C(=O)Nc1cnccc1OCCCO [I-O-53, 2-amino-6-chloro-N-(4-(3-hydroxypropoxy)pyridin-3-yl)pyrazolo[1,5-a]pyrimidine-3-carboxamide] | 10 to 1000 nM
6 | Nc1nn2cc(F)cnc2c1C(=O)Nc1cncc(F)c1N1CCN2C(=O)CCCC2C1 (stereo not drawn) [I-N-277, 2-amino-6-fluoro-N-(5-fluoro-4-(6-oxohexahydro-1H-pyrido[1,2-a]pyrazin-2(6H)-yl)pyridin-3-yl)pyrazolo[1,5-a]pyrimidine-3-carboxamide] | 10 to 1000 nM
7 | Nc1nn2cc(Cl)cnc2c1C(=O)Nc1cncc(F)c1N1CCC(C(=O)N2CCN3CCC2CC3)CC1 [I-G-87, N-(4-(4-(1,4-diazabicyclo[3.2.2]nonane-4-carbonyl)piperidin-1-yl)-5-fluoropyridin-3-yl)-2-amino-6-chloropyrazolo[1,5-a]pyrimidine-3-carboxamide] | 10 to 1000 nM
8 | CN(C)C1CN(C(=O)C2CCN(c3c(F)cncc3NC(=O)c3c(N)nn4cc(F)cnc34)CC2)C1 [I-G-22, 2-amino-N-(4-(4-(3-(dimethylamino)azetidine-1-carbonyl)piperidin-1-yl)-5-fluoropyridin-3-yl)-6-fluoropyrazolo[1,5-a]pyrimidine-3-carboxamide] | 10 to 1000 nM
9 | Nc1nn2cc(F)cnc2c1C(=O)Nc1cnccc1N1CCC(S(=O)(=O)N2CCOCC2)CC1 [I-N-170, 2-amino-6-fluoro-N-(4-(4-(morpholinosulfonyl)piperidin-1-yl)pyridin-3-yl)pyrazolo[1,5-a]pyrimidine-3-carboxamide] | 10 to 1000 nM
10 | CN1CCN(c2c(F)cncc2NC(=O)c2c(N)nn3cc(F)cnc23)CC1 [I-N-15, 2-amino-6-fluoro-N-(5-fluoro-4-(4-methylpiperazin-1-yl)pyridin-3-yl)pyrazolo[1,5-a]pyrimidine-3-carboxamide] | 10 to 1000 nM
11 | Cn1cncc1-c1ccncc1NC(=O)c1c(N)nn2cc(F)cnc12 [I-C-56, 2-amino-6-fluoro-N-(4-(1-methyl-1H-imidazol-5-yl)pyridin-3-yl)pyrazolo[1,5-a]pyrimidine-3-carboxamide] | 10 to 1000 nM
12 | Cc1nonc1N1CCN(c2ccncc2NC(=O)c2c(N)nn3cc(F)cnc23)CC1 [I-N-260, 2-amino-6-fluoro-N-(4-(4-(4-methyl-1,2,5-oxadiazol-3-yl)piperazin-1-yl)pyridin-3-yl)pyrazolo[1,5-a]pyrimidine-3-carboxamide] | 10 to 1000 nM
13 | Nc1nn2cc(Cl)cnc2c1C(=O)Nc1cncc(F)c1N1CCN(C2COC2)CC1 [I-N-117, 2-amino-6-chloro-N-(5-fluoro-4-(4-(oxetan-3-yl)piperazin-1-yl)pyridin-3-yl)pyrazolo[1,5-a]pyrimidine-3-carboxamide] | 10 to 1000 nM
14 | N#CC1(C(=O)N2CCC(c3ccncc3NC(=O)c3c(N)nn4cc(F)cnc34)CC2)CC1 [I-C-71, 2-amino-N-(4-(1-(1-cyanocyclopropanecarbonyl)piperidin-4-yl)pyridin-3-yl)-6-fluoropyrazolo[1,5-a]pyrimidine-3-carboxamide] | 10 to 1000 nM
15 | N#CCc1cnc2c(C(=O)Nc3cnccc3OC3CCOC3)c(N)nn2c1 (racemic) [I-O-37, (R,S)-2-amino-6-(cyanomethyl)-N-(4-((tetrahydrofuran-3-yl)oxy)pyridin-3-yl)pyrazolo[1,5-a]pyrimidine-3-carboxamide] | < 10 nM
16 | COC(=O)[C@H]1CC[C@@H](Oc2ccncc2NC(=O)c2c(N)nn3cc(F)cnc23)CC1 [I-O-18, (1s,4s)-methyl 4-((3-(2-amino-6-fluoropyrazolo[1,5-a]pyrimidine-3-carboxamido)pyridin-4-yl)oxy)cyclohexanecarboxylate] | 10 to 1000 nM
17 | CN1CCC(c2ccncc2NC(=O)c2c(N)nn3cc(F)cnc23)CC1=O (stereo not drawn) [I-C-73, 2-amino-6-fluoro-N-(4-(1-methyl-2-oxopiperidin-4-yl)pyridin-3-yl)pyrazolo[1,5-a]pyrimidine-3-carboxamide] | 10 to 1000 nM
18 | Nc1nn2cc(F)cnc2c1C(=O)Nc1cncc(F)c1N1CCC(C(=O)N2CCC(N3CCCC3)CC2)CC1 [I-G-59, 2-amino-6-fluoro-N-(5-fluoro-4-(4-(4-(pyrrolidin-1-yl)piperidine-1-carbonyl)piperidin-1-yl)pyridin-3-yl)pyrazolo[1,5-a]pyrimidine-3-carboxamide] | 10 to 1000 nM
19 | Cn1ncnc1-c1ccncc1NC(=O)c1c(N)nn2cc(F)cnc12 [I-C-65, 2-amino-6-fluoro-N-(4-(1-methyl-1H-1,2,4-triazol-5-yl)pyridin-3-yl)pyrazolo[1,5-a]pyrimidine-3-carboxamide] | 10 to 1000 nM
20 | N#CC1(c2cnc3c(C(=O)Nc4cncc(F)c4N4CCN(C5COC5)CC4)c(N)nn3c2)CC1 [I-N-180, 2-amino-6-(1-cyanocyclopropyl)-N-(5-fluoro-4-(4-(oxetan-3-yl)piperazin-1-yl)pyridin-3-yl)pyrazolo[1,5-a]pyrimidine-3-carboxamide] | 10 to 1000 nM
21 | CN(C)Cc1ccc(Oc2ccncc2NC(=O)c2c(N)nn3cc(F)cnc23)cn1 [I-O-3, 2-amino-N-(4-((6-((dimethylamino)methyl)pyridin-3-yl)oxy)pyridin-3-yl)-6-fluoropyrazolo[1,5-a]pyrimidine-3-carboxamide] | 10 to 1000 nM
22 | Cc1ncccc1-c1ccncc1NC(=O)c1c(N)nn2cc(F)cnc12 [I-C-20, 2-amino-6-fluoro-N-(2-methyl-[3,4′-bipyridin]-3′-yl)pyrazolo[1,5-a]pyrimidine-3-carboxamide] | 10 to 1000 nM
23 | Nc1nn2cc(Cl)cnc2c1C(=O)Nc1cnccc1N1CCC(N2CCC2)CC1 [I-N-93, 2-amino-N-(4-(4-(azetidin-1-yl)piperidin-1-yl)pyridin-3-yl)-6-chloropyrazolo[1,5-a]pyrimidine-3-carboxamide] | 10 to 1000 nM
24 | N#C[C@@H]1CCN(c2c(Cl)cncc2NC(=O)c2c(N)nn3cc(F)cnc23)C1 [I-N-285, (R)-2-amino-N-(5-chloro-4-(3-cyanopyrrolidin-1-yl)pyridin-3-yl)-6-fluoropyrazolo[1,5-a]pyrimidine-3-carboxamide] | 10 to 1000 nM
25 | CC1(O)CCN(c2ccncc2NC(=O)c2c(N)nn3cc(Cl)cnc23)CC1 [I-N-66, 2-amino-6-chloro-N-(4-(4-hydroxy-4-methylpiperidin-1-yl)pyridin-3-yl)pyrazolo[1,5-a]pyrimidine-3-carboxamide] | 10 to 1000 nM
26 | Nc1nn2cc(F)cnc2c1C(=O)Nc1cncc(F)c1N1CCN(C2CCOC2)CC1 (stereo not drawn) [I-N-122, 2-amino-6-fluoro-N-(5-fluoro-4-(4-(tetrahydrofuran-3-yl)piperazin-1-yl)pyridin-3-yl)pyrazolo[1,5-a]pyrimidine-3-carboxamide] | 10 to 1000 nM
27 | Nc1nn2cc(F)cnc2c1C(=O)Nc1cncc(F)c1N1CCCCC1 [I-N-270, 2-amino-6-fluoro-N-(5-fluoro-4-(piperidin-1-yl)pyridin-3-yl)pyrazolo[1,5-a]pyrimidine-3-carboxamide] | 10 to 1000 nM
28 | CC(C)N1CCC(C(=O)N2CCN(c3c(F)cncc3NC(=O)c3c(N)nn4cc(F)cnc34)CC2)C1 (stereo not drawn) [I-N-206, 2-amino-6-fluoro-N-(5-fluoro-4-(4-(1-isopropylpyrrolidine-3-carbonyl)piperazin-1-yl)pyridin-3-yl)pyrazolo[1,5-a]pyrimidine-3-carboxamide] | 10 to 1000 nM
29 | Cc1nnc(C2CCN(c3ccncc3NC(=O)c3c(N)nn4cc(F)cnc34)CC2)o1 [I-N-265, 2-amino-6-fluoro-N-(4-(4-(5-methyl-1,3,4-oxadiazol-2-yl)piperidin-1-yl)pyridin-3-yl)pyrazolo[1,5-a]pyrimidine-3-carboxamide] | 10 to 1000 nM
30 | Nc1nn2cc(F)cnc2c1C(=O)Nc1cncc(F)c1N1CCC(C(=O)NCCN2CCC2)CC1 [I-G-42, 2-amino-N-(4-(4-((2-(azetidin-1-yl)ethyl)carbamoyl)piperidin-1-yl)-5-fluoropyridin-3-yl)-6-fluoropyrazolo[1,5-a]pyrimidine-3-carboxamide] | 10 to 1000 nM
31 | Nc1nn2cc(F)cnc2c1C(=O)Nc1cncc(F)c1N1CCC(N2CCCC2=O)CC1 [I-N-147, 2-amino-6-fluoro-N-(5-fluoro-4-(4-(2-oxopyrrolidin-1-yl)piperidin-1-yl)pyridin-3-yl)pyrazolo[1,5-a]pyrimidine-3-carboxamide] | 10 to 1000 nM
32 | CN1CC2(CCC1=O)CCN(c1ccncc1NC(=O)c1c(N)nn3cc(F)cnc13)CC2 [I-N-231, 2-amino-6-fluoro-N-(4-(2-methyl-3-oxo-2,9-diazaspiro[5.5]undecan-9-yl)pyridin-3-yl)pyrazolo[1,5-a]pyrimidine-3-carboxamide] | 10 to 1000 nM
33 | CC1(C)CN(C(=O)C2CCN(c3c(F)cncc3NC(=O)c3c(N)nn4cc(F)cnc34)CC2)CCN1 [I-G-27, 2-amino-N-(4-(4-(3,3-dimethylpiperazine-1-carbonyl)piperidin-1-yl)-5-fluoropyridin-3-yl)-6-fluoropyrazolo[1,5-a]pyrimidine-3-carboxamide] | 10 to 1000 nM
